{"source": "patent US20110143366A1", "about": "“PROTEIN BIOMARKERS FOR IN VITRO TESTING OF DEVELOPMENTAL TOXICITY AND ENBRYOTOXICITY OF CHEMICAL SUBSTANCES” (PROTEOSYS AG, priority 2008, published 2011)", "origin": "cited, not measured here", "data": [{"test_system": "Cardiomyocytes differentiated from murine embryonic stem cells (EST model)", "details": "substances with known embryotoxic potency used in the EST model", "values": [{"molecule": "CC(C)(S)[C@@H](N)C(=O)O", "note": "[D-penicillamine]", "Embryotoxicity class of the substance": "non-embryotoxic"}, {"molecule": "CC[C@H](C)C(=O)O[C@H]1C[C@@H](C)C=C2C=C[C@H](C)[C@H](CC[C@@H]3C[C@@H](O)CC(=O)O3)[C@H]21", "note": "[Lovastatin]", "Embryotoxicity class of the substance": "highly embryotoxic"}, {"molecule": "O=[N+]([O-])c1ccc(Oc2ccc(Cl)cc2Cl)cc1", "note": "[Nitrofen]", "Embryotoxicity class of the substance": "highly embryotoxic"}, {"molecule": "C[C@@H]1Cc2c(Cl)cc(C(=O)N[C@@H](Cc3ccccc3)C(=O)O)c(O)c2C(=O)O1", "note": "[Ochratoxin, Ochratoxin-A]", "Embryotoxicity class of the substance": "highly embryotoxic"}, {"molecule": "CN(C)CCOC(C)(c1ccccc1)c1ccccn1", "note": "(centres unmarked) [doxylamine]", "Embryotoxicity class of the substance": "non-embryotoxic"}, {"molecule": "CCN(CC)CCNC(=O)c1cc(Cl)c(N)cc1OC", "note": "[metoclopramide]", "Embryotoxicity class of the substance": "non-embryotoxic"}, {"molecule": "CC[C@H](C)C(=O)O[C@H]1C[C@H](O)C=C2C=C[C@H](C)[C@H](CC[C@@H](O)C[C@@H](O)CC(=O)O)[C@H]21", "note": "[pravastatin]", "Embryotoxicity class of the substance": "moderately embryotoxic"}, {"molecule": "N#CCCN", "note": "[β-aminoproprionitril]", "Embryotoxicity class of the substance": "non-embryotoxic"}]}]}
